Holding throughout (test): Cell proliferation assay (CellTiter-Glo, 72 hours)
On the technique in general: Cellular ATP, detected with luciferase, serves as a proxy for viable cell number.

For one test, the system named is KM12 cell (TPM3-TRKA). The format is cell-based, human. In a few lines:
(§1)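 Cells used were KG-1 (AML), TT medullary thyroid carcinoma ([…]) and KM12 colon (TPM3-TRKA). Viability was read by CellTiter-Glo ATP luminescence, and IC50 derived by curve fitting.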

In a further test the test system is KG-1. The format is cell-based, human. An outline of the steps: as §1
In a further test the target is T1, BaF3 EML4-ALK (Homo sapiens, UniProt Q9UM73).
T1 construct: The EML4-ALK gene (variant 1) was synthesized at GenScript and cloned into pCDH-CMV-MCS-EF1-Puro plasmid (System Biosciences, Inc); fused on or other part: Q9HC35 (Echinoderm microtubule-associated protein-like 4)
The test is classed as cell-based. Conditions: anti-cell proliferation. An outline of the steps:
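Ba/F3 cells were stably transduced with wild-type EML4-ALK variant 1 and selected for IL-3-independent growth. Cells were seeded for 24 h, then exposed to compounds for 72 h at 37 °C, 5% CO2. Viability was read as ATP luminescence and IC50 values were fitted.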

A further test concerns the target T2, BaF3 KIF5B-RET_V804M (Homo sapiens, UniProt P07949, V804M, cells depend on it).
T2 construct: fused on or other part: P33176 (Kinesin-1 heavy chain)
The format is cell-based. Conditions: anti-cell proliferation, read-out: BaF3 KIF5B-RET_V804M IC50. In a few lines:
(§2)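 Ba/F3 cells were lentivirally transduced with wild-type or mutant KIF5B-RET, puromycin-selected and grown without IL-3. CellTiter-Glo ATP luminescence read viability, and IC50 values came from curve fitting.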

The next test addresses T3, BaF3 KIF5B-RET (Homo sapiens, UniProt P07949).
T3 construct: fused on or other part: P33176 (Kinesin-1 heavy chain)
The test is classed as cell-based. Conditions: anti-cell proliferation, read-out: BaF3 KIF5B-RET IC50. In a few lines: as §2

Another test relates to TT cell (RET C634W). The test is classed as cell-based. Conditions: Homo sapiens, anti-cell proliferation. The method, then:
Human medulla thyroid carcinoma cell line TT (containing RET […] mutation) and acute myelogenous cell line KG-1 were purchased from ATCC. Human colon cancer cell line KMI2 (containing TPM3-TRKA) was obtained from NCI.
Two thousand cells per well were seeded in 384 well white plate for 24 hrs, and then treated with compounds for 72 hours (37° C., 5% CO2). Cell proliferation was measured using CellTiter-Glo luciferase-based ATP detection assay (Promega) following the manufactures's protocol. IC50 determinations were performed using GraphPad Prism software (GraphPad, Inc., San Diego, Calif.).

The next test concerns the target T4, BaF3 KIF5B-RET_G810R (Homo sapiens, UniProt P07949, G810R, cells depend on it).
T4 construct: fused on or other part: P33176 (Kinesin-1 heavy chain)
The test is classed as cell-based. Conditions: anti-cell proliferation, read-out: BaF3 KIF5B-RET_G810R IC50.

Setting [1] is: Homo sapiens, KM12, anti-cell proliferation.
[2] abbreviates: Homo sapiens, KG-1, anti-cell proliferation.

T4 sequence (P07949 whole entry G810R, the tested form may be a part): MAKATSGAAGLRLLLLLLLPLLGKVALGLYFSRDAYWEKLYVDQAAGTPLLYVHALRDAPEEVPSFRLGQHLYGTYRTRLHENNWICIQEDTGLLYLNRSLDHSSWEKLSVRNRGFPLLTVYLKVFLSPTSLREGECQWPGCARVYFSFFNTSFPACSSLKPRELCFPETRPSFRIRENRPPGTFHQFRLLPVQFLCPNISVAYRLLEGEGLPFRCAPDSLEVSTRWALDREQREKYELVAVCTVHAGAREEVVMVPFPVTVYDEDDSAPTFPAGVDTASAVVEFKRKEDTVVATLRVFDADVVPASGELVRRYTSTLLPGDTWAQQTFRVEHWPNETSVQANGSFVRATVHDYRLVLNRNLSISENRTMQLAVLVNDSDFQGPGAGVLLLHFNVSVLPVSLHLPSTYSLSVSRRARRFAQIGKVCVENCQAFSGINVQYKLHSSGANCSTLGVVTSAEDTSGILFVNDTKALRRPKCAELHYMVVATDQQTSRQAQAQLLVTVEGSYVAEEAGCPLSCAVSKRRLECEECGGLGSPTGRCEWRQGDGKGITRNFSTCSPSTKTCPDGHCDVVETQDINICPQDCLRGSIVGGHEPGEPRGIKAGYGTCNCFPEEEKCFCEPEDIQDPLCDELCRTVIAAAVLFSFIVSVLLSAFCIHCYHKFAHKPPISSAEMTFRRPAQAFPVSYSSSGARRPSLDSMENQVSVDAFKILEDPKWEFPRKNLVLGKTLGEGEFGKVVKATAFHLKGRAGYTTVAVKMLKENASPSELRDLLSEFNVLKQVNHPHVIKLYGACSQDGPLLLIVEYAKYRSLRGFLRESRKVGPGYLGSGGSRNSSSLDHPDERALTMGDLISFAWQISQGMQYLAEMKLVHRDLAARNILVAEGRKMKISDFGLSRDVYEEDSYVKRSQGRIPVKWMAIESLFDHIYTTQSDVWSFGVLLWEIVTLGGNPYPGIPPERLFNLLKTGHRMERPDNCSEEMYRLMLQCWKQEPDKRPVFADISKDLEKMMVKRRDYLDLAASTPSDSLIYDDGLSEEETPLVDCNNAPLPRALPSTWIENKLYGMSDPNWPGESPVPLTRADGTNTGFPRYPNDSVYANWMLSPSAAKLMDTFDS
T1 sequence (Q9UM73 whole entry, change not shown, the tested form may be a part): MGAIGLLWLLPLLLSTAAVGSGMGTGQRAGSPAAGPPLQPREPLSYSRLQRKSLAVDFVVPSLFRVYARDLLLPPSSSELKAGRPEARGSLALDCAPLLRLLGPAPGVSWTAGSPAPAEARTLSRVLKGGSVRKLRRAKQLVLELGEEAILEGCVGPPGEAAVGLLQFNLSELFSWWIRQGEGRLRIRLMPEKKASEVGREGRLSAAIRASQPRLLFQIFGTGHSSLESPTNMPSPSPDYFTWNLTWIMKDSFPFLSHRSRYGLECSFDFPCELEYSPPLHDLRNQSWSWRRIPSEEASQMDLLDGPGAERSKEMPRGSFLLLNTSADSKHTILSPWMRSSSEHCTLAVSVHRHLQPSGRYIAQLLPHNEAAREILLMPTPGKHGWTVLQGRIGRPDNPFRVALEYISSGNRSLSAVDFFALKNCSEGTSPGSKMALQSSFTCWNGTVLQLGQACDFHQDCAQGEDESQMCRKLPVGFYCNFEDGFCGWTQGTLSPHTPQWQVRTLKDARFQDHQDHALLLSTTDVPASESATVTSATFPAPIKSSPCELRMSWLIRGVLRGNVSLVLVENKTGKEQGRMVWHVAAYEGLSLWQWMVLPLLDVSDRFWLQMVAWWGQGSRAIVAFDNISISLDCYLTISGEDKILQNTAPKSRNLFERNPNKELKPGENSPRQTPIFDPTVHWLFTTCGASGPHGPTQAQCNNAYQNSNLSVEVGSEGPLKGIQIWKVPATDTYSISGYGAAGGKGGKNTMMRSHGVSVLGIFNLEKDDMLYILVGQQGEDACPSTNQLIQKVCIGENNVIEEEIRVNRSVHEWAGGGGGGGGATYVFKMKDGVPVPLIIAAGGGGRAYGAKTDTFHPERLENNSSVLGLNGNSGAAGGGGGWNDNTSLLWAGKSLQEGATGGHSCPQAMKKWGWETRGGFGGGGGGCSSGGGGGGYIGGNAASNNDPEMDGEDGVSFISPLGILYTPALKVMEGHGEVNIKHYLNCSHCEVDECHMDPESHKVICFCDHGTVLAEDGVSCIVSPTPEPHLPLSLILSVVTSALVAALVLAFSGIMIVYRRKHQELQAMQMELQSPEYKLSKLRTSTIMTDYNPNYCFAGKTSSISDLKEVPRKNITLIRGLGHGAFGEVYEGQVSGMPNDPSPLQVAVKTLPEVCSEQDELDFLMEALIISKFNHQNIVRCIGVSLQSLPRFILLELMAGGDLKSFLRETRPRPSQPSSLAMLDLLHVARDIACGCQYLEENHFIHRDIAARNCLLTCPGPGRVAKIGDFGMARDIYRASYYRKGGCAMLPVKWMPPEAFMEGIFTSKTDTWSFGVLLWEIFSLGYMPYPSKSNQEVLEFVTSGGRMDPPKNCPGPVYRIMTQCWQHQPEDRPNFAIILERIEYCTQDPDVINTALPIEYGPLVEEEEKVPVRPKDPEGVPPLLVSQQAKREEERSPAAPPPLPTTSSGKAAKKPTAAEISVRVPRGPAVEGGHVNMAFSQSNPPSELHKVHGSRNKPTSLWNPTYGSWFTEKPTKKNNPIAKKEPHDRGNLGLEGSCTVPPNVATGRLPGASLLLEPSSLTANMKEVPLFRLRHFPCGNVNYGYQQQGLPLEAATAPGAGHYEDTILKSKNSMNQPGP
T3 sequence (P07949 whole entry, change not shown, the tested form may be a part): as the sequence (P07949 whole entry G810R, the tested form may be a part) above, with R810G counted along it
T2 sequence (P07949 whole entry V804M, the tested form may be a part): as the sequence (P07949 whole entry G810R, the tested form may be a part) above, with V804M, R810G counted along it

In the case of `C[C@H]1CNC(=O)c2cnn3cc4c(nc23)N(Cc2cc(F)ccc2O1)[C@@H]1CCC[C@H]1O4` [Compound 2], the 50% inhibitory concentration (IC50) (as a rule, the concentration needed to halve the response being measured) is 255 nM in the test with KM12 cell (TPM3-TRKA) (setting [1]), 5000 nM in the test on KG-1 (setting [2]) and 1780 nM in the test with TT cell (RET C634W). Besides, the GI50 on BaF3 EML4-ALK was above 10000 nM; at BaF3 KIF5B-RET_V804M, above 10000 nM; at BaF3 KIF5B-RET, 1450 nM.
`C[C@H]1CNC(=O)c2cnn3cc4c(nc23)N(Cc2cc(F)cc(F)c2O1)[C@@H]1CCC[C@@H]1O4` [Compound 3, (3aR,11S,20aS)-7,9-difluoro-11-methyl-2,3,3a,12,13,20a-hexahydro-1H,5H-17-19-(metheno)cyclopenta[5,6][1,4] oxazino[3,4-i]pyrazolo[4,3-f][1,4,8,10]benzoxatriacyclotridecin-14(11H)-one]: the IC50 in the test with KM12 cell (TPM3-TRKA) (setting [1]) is 4.2 nM; in the test on KG-1 (setting [2]), 505 nM; with TT cell (RET C634W), 7.9 nM. Besides, the GI50 at BaF3 EML4-ALK is 1500 nM; at BaF3 KIF5B-RET_V804M it was 1700 nM; on BaF3 KIF5B-RET, below 0.2 nM.
For `C[C@H]1CNC(=O)c2cnn3cc4c(nc23)N(Cc2cc(F)ccc2O1)[C@@H]1COC[C@@H]1O4` [Compound 4, (3aR,11S,20aS)-7-fluoro-11-methyl-1,3,3a,12,13,20a-hexahydro-5H-17-19-(metheno)furo[3′,4′:5,6][1,4] oxazino[3,4-i]pyrazolo[4,3-f][1,4,8,10]benzoxatriacyclotridecin-14(11H)-one], the half-maximal inhibitory concentration (IC50) was determined as 22 nM with KM12 cell (TPM3-TRKA) (setting [1]), 5000 nM in the test on KG-1 (setting [2]) and 462 nM with TT cell (RET C634W). Besides, the values for the GI50 at BaF3 EML4-ALK, at BaF3 KIF5B-RET_V804M and at BaF3 KIF5B-RET were 3290 nM, 5000 nM and 184 nM, respectively.
For `O=C1NCC(F)(F)COc2ncc(F)cc2CN2c3nc4c1cnn4cc3O[C@H]1CCC[C@H]12` [Compound 40, (3aR,21aS)-7,12,12-trifluoro-2,3,3a,11,12,13,14,21a-octahydro-1H,5H, 15H-18,20-(metheno)cyclopenta[5,6][1,4] oxazino[4,3-e]pyrazolo[3,4-h]pyrido[2,3-b][1,5,7,11]oxatriazacyclotetradecin-15-one], the results for the IC50 in the test on KM12 cell (TPM3-TRKA) (setting [1]) and with KG-1 (setting [2]) were below 0.2 nM and 19.1 nM, respectively. Further, the GI50 on BaF3 EML4-ALK was 1950 nM; at BaF3 KIF5B-RET_V804M, 5000 nM; at BaF3 KIF5B-RET it was below 0.2 nM; at BaF3 KIF5B-RET_G810R, 1.8 nM.
Turning to `C[C@@H]1CNC(=O)c2cnn3cc4c(nc23)N(Cc2cc(F)cnc2O1)[C@H]1CCC[C@H]1O4` [Compound 44, (3aS,11R,20aR)-7-fluoro-11-methyl-2,3 3a,12,13,20a-hexahydro-1H,5H-17,19-(metheno)cyclopenta[5,6][1,4] oxazino[3,4-i]pyrazolo[4,3-f]pyrido[3,2-l][1,4,8,10]oxatriazacyclotridecin-14(11H)-one], the IC50 with KM12 cell (TPM3-TRKA) (setting [1]) was 668 nM; in the test with KG-1 (setting [2]), above 10000 nM. In addition, the GI50 on BaF3 EML4-ALK, on BaF3 KIF5B-RET_V804M, at BaF3 KIF5B-RET and on BaF3 KIF5B-RET_G810R was above 10000 nM throughout.
For `O=C1NC2(CCC2)CCOc2ncc(F)cc2CN2c3nc4c1cnn4cc3O[C@H]1CCC[C@H]12` [Compound 45], the figures for the IC50 with KM12 cell (TPM3-TRKA) (setting [1]) and with KG-1 (setting [2]) were 202 nM and 1130 nM, respectively. In addition, the GI50 on BaF3 EML4-ALK stood at 3110 nM; at BaF3 KIF5B-RET_V804M, 5000 nM; at BaF3 KIF5B-RET, 526 nM; on BaF3 KIF5B-RET_G810R it was 1710 nM.
As for `O=C1N[C@H](C(F)F)COc2ncc(F)cc2CN2c3nc4c1cnn4cc3O[C@H]1CCC[C@H]12` [Compound 47, (3aR,12S,20aS)-12-(difluoromethyl)-7-fluoro-2,3,3a,12,13,20a-hexahydro-1H,5H-17,19-(metheno)cyclopenta[5,6][1,4] oxazino[3,4-i]pyrazolo[4,3-f]pyrido[3,2-l][1,4,8,10]oxatriazacyclotridecin-14(11H)-one], the IC50 is below 0.2 nM with KM12 cell (TPM3-TRKA) (setting [1]) and 3.5 nM with KG-1 (setting [2]). The GI50 at BaF3 EML4-ALK is 139 nM; at BaF3 KIF5B-RET_V804M, 469 nM; at BaF3 KIF5B-RET, below 0.2 nM; on BaF3 KIF5B-RET_G810R, 3.6 nM.
As to `O=C1N[C@H](C(F)(F)F)COc2ncc(F)cc2CN2c3nc4c1cnn4cc3O[C@H]1CCC[C@H]12` [Compound 48, (3aR,12S,20aS)-7-fluoro-12-(trifluoromethyl)-2,3,3a,12,13,20a-hexahydro-1H,5H-17,19-(metheno)cyclopenta[5,6][1,4]oxazino[3,4-i]pyrazolo[4,3-f]pyrido[3,2-l][1,4,8,10]oxatriazacyclotridecin-14(11H)-one], the IC50 was determined as 5.9 nM in the test with KM12 cell (TPM3-TRKA) (setting [1]) and 117 nM with KG-1 (setting [2]). Further, the GI50 came to 456 nM on BaF3 EML4-ALK, 1070 nM on BaF3 KIF5B-RET_V804M, 0.2 nM on BaF3 KIF5B-RET and 90.9 nM on BaF3 KIF5B-RET_G810R.
For the molecule `O=C1NC[C@@H](CO)Oc2ncc(F)cc2CN2c3nc4c1cnn4cc3O[C@H]1CCC[C@H]12` [Compound 49, (3aR,11S,20aS)-7-fluoro-11-(hydroxymethyl)-2,3,3a,12,13,20a-hexahydro-1H,5H-17,19-(metheno)cyclopenta[5,6][1,4]oxazino[3,4-i]pyrazolo[4,3-f]pyrido[3,2-l][1,4,8,10]oxatriazacyclotridecin-14(11H)-one], the IC50 with KM12 cell (TPM3-TRKA) (setting [1]) was found to be 1460 nM; with KG-1 (setting [2]), 5240 nM. In addition, the GI50 on BaF3 EML4-ALK is above 10000 nM; at BaF3 KIF5B-RET_V804M it was 5000 nM; at BaF3 KIF5B-RET, 397 nM; on BaF3 KIF5B-RET_G810R, 1640 nM.
With “(3aR,11s,13S,21aS)-7-fluoro-2,3,3a,12, 13,14,15,21a-octahydro-1H,5H,11H- 11,13-methano-18,20- (metheno)cyclopenta[5,6][1,4] oxazino[4,3-e]pyrazolo[3,4-h]pyrido[2,3- b][1,5,7,11]oxatriazacyclotetradecine [Compound 46]”, the IC50 with KM12 cell (TPM3-TRKA) (anti-cell proliferation) stood at 2.8 nM; with KG-1 (anti-cell proliferation) it was 5.9 nM. The GI50 at BaF3 EML4-ALK was 55.5 nM; at BaF3 KIF5B-RET_V804M it was 71.5 nM; at BaF3 KIF5B-RET, below 0.2 nM; at BaF3 KIF5B-RET_G810R, 2.9 nM.

For the origin of these results see patent US10745416B2, “Macrocyclic compounds for treating disease” (Turning Point Therapeutics, Inc., priority 2017, dated 2020).
